Assay results published in patent US8673966B2, “ALDH-2 inhibitors in the treatment of addiction” (Gilead Sciences, Inc., priority 2011, dated 2014).
Entries after “also recorded” stand apart in the source; their conditions may differ.

Columns and labels:
[1] = system: cocaine dependency and relapse; test: Operant cocaine self administration and reinstatement model in rats; settings: p.o.
hMAO-B = hMAO-B (Homo sapiens (Human), UniProt P27338); test: MAO-B assay (luminogenic MAO substrate); assay type: biochemical; settings: microsome contained MAO-B, 16 uM substrate, 20 min pre-incubation; unit inferred
hMAO-B, sequence (P27338 whole entry): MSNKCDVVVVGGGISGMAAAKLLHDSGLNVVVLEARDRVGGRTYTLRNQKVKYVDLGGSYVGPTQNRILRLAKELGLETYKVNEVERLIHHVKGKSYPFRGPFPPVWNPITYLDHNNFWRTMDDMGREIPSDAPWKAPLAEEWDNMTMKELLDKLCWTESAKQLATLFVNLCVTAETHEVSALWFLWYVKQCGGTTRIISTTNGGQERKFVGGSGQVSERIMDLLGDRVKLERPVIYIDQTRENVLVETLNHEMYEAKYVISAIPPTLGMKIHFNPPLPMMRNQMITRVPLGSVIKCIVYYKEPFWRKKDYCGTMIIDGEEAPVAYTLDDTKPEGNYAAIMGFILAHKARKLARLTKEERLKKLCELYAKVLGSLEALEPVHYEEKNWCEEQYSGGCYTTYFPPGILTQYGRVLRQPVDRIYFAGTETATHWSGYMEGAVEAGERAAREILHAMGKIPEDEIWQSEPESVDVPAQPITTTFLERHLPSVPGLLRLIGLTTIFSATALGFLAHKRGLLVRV
Description: (§1) MAO assays included luminogenic MAO substrate, reaction buffers, Luciferin Detection and the reconstitution buffer with esterase. Standard MAO reaction mixtures included microsome contained MAO-A (2 ug) or MAO-B (10 ug), 160 uM substrate for MAO-A or 16 uM substrate for MAO-B, MAO-A buffer (100 mM Hepes buffer, pH 7.5, 5% glycerol) or MAO-B buffer (100 mM Hepes, pH 7.5, 5% glycerol, 10% dimethyl sulfoxide) in a final volume of 30 ul. After 20 minutes of pre-incubation of the enzyme with compounds, the reaction was initiated by adding enzyme substrate and the reaction was allowed to proceed for 60 minutes. Reconstituted Luciferin Detection Reagent (30 ul) was then added is added to simultaneously stop the MAO reaction and convert the methyl ester derivative to luciferin and produce light. The amount of light produced is directly proportional to the activity of MAO. The mixtures were further incubated for 20 minutes and activity of the enzyme was determined using Perkin-Elmer Envision Reader.
(§2) Note: IC50 refers to the concentration of a compound that inhibits a reaction by 50%. In the case of competitive inhibition, IC50=2Ki when the substrate is present at the Km concentration, as per the relationship: Ki=IC50/[1+(substrate concentration/Km)].

hMAO-A = hMAO-A (Homo sapiens (Human), UniProt P21397); test: MAO-A assay (luminogenic MAO substrate); assay type: biochemical; settings: microsome contained MAO-A, 160 uM substrate, 20 min pre-incubation; unit inferred
hMAO-A, sequence (P21397 whole entry): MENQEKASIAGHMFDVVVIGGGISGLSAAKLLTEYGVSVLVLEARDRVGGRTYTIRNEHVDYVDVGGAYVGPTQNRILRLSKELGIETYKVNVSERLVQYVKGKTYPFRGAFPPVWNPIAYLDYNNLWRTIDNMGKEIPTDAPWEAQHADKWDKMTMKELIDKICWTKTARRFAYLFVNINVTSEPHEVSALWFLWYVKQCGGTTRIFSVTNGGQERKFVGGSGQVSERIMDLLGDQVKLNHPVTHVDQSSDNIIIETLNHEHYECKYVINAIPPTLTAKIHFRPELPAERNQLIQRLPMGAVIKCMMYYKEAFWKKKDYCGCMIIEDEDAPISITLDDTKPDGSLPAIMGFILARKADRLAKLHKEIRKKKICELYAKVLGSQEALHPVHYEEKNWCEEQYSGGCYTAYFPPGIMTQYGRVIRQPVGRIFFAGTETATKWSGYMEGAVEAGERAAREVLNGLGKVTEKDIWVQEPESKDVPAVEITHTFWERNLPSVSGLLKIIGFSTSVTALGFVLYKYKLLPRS
Description: as §1, §2

recombinant human ALDH2 = recombinant human ALDH2 (Homo sapiens (Human), UniProt P05091); test: ALDH2 assay (NADH formation); assay type: biochemical; settings: 10 nM recombinant human ALDH2, 150 uM formaldehyde, 60 min pre-incubation; read-out: IC50 hALDH2
recombinant human ALDH2, sequence (P05091 18-517): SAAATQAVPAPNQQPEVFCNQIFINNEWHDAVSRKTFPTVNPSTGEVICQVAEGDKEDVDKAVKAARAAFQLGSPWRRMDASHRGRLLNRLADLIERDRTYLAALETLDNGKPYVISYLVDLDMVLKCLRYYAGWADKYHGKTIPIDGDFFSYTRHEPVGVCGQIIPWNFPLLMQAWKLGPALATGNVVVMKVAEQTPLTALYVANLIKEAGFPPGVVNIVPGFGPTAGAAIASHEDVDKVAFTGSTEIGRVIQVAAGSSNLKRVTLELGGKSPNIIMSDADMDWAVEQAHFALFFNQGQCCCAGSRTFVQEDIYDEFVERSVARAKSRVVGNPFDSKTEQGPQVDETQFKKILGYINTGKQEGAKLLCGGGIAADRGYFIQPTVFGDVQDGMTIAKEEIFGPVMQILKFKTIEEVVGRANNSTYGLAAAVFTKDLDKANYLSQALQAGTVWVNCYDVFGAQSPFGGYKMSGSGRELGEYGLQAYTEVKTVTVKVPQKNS
Description: Standard ALDH2 reaction mixtures contained 150 uM formaldehyde, 2.5 mM NAD^+, 10 mM MgCl2 and 10 nM recombinant human ALDH2 in 50 mM Hepes buffer, pH 7.4, 0.01% Tween 20 in a final volume of 50 ul using 384-well plates. After 60 min of pre-incubation of compound with ALDH2 and formaldehyde, the reaction was started by adding NAD+ and the reaction mixture was allowed to proceed for 90 minutes. Activity of the enzyme was determined by monitoring NADH formation using Perkin-Elmer Envision Reader with excitation and emission wavelengths set at 340 and 460 nm, respectively.
as §2

[2] = target: human mitochondrial aldehyde dehydrogenase (ALDH-2) (Homo sapiens (Human), UniProt P05091); settings: U.S. Pat. Nos. 5,624,910 and 6,121,010; cited from earlier work
human mitochondrial aldehyde dehydrogenase (ALDH-2), sequence (P05091 18-517): as above

ethanol intake = settings: literature (Keung and Vallee); cited from earlier work

IC50 (hMAO-B) [µM] | IC50 (hMAO-A) [µM] | IC50 (recombinant human ALDH2) [µM] | SMILES | reduced cocaine dependency, as reduction in the average presses of the active lever ([1]; 2.5 mg/Kg, 2 hour pre-treatment) [%] | reduced cocaine dependency, as reduction in the average presses of the active lever ([1]; 5.0 mg/Kg, 2 hour pre-treatment) [%] | reduced cocaine dependency, as reduction in the average presses of the active lever ([1]; 10.0 mg/kg, 1 hour pre-treatment) [%] | inhibition of ALDH-2 [2] | suppressing ethanol intake (ethanol intake)
> 130 | > 110 | 0.174 | CS(=O)(=O)Nc1ccc(-c2coc3cc(C#CC4CCNCC4)ccc3c2=O)cc1 [N-(4-(4-oxo-7-(piperidin-4-ylethynyl)-4H-chromen-3-yl)phenyl)methanesulfonamide] | – | – | – | – | –
> 130 | > 130 | 0.009 | CS(=O)(=O)Nc1ccc(-c2coc3cc(C#Cc4cc[nH]c(=O)c4)ccc3c2=O)cc1 [N-(4-(4-oxo-7-((2-oxo-1,2-dihydropyridin-4-yl)ethynyl)-4H-chromen-3-yl)phenyl)methanesulfonamide] | – | – | – | – | –
114 | > 130 | 0.057 | CS(=O)(=O)Nc1ccc(-c2coc3cc(C#Cc4cncnc4)ccc3c2=O)cc1 [N-(4-(4-oxo-7-(pyrimidin-5-ylethynyl)-4H-chromen-3-yl)phenyl)methanesulfonamide] | – | – | – | – | –
> 130 | > 130 | 0.043 | CS(=O)(=O)Nc1ccc(-c2coc3cc(C#CC4CCOCC4)ccc3c2=O)cc1 [N-(4-(4-oxo-7-((tetrahydro-2H-pyran-4-yl)ethynyl)-4H-chromen-3-yl)phenyl)methanesulfonamide] | – | – | – | – | –
> 130 | > 130 | 0.528 | CS(=O)(=O)Nc1ccc(-c2coc3cc(C#CC4(N)CCCCC4)ccc3c2=O)cc1 [N-(4-(7-((1-aminocyclohexyl)ethynyl)-4-oxo-4H-chromen-3-yl)phenyl)methanesulfonamide] | – | – | – | – | –

Continued, compound first:

SMILES | IC50 (hMAO-B) [µM] | IC50 (hMAO-A) [µM] | IC50 (recombinant human ALDH2) [µM] | reduced cocaine dependency, as reduction in the average presses of the active lever ([1]; 2.5 mg/Kg, 2 hour pre-treatment) [%] | reduced cocaine dependency, as reduction in the average presses of the active lever ([1]; 5.0 mg/Kg, 2 hour pre-treatment) [%] | reduced cocaine dependency, as reduction in the average presses of the active lever ([1]; 10.0 mg/kg, 1 hour pre-treatment) [%] | inhibition of ALDH-2 [2] | suppressing ethanol intake (ethanol intake)
CS(=O)(=O)Nc1ccc(-c2coc3cc(C#CC4CN(C(=O)C5CC5)C4)ccc3c2=O)cc1 [N-(4-(7-((1-(cyclopropanecarbonyl)azetidin-3-yl)ethynyl)-4-oxo-4H-chromen-3-yl)phenyl)methanesulfonamide] | > 130 | > 130 | 0.005 | 70 | 60 | 87 | – | –
O=c1c(-c2ccc(O)cc2)coc2cc(O[C@@H]3O[C@H](CO)[C@@H](O)[C@H](O)[C@H]3O)ccc12 [Daidzin, daidzin] | – | – | – | – | – | – | potent and selective inhibitors | –
O=c1c(-c2ccc(O)cc2)coc2cc(O)ccc12 [daidzein] | – | – | – | – | – | – | – | effective in suppressing ethanol intake; also recorded: effective in suppressing ethanol uptake
CC(C)CN1CC(C#Cc2ccc3c(=O)c(-c4ccc(NS(C)(=O)=O)cc4)coc3c2)C1 [N-(4-(7-((1-isobutylazetidin-3-yl)ethynyl)-4-oxo-4H-chromen-3-yl)phenyl)methanesulfonamide] | > 130 | > 130 | 0.109 | – | – | – | – | –
CC1(C(=O)N2CC(C#Cc3ccc4c(=O)c(-c5ccc(NS(C)(=O)=O)cc5)coc4c3)C2)CC1 [N-(4-(7-((1-(1-methylcyclopropanecarbonyl)-azetidin-3-yl)ethynyl)-4-oxo-4H-chromen-3-yl)phenyl)methanesulfonamide] | > 130 | > 130 | 0.006 | – | – | – | – | –
CS(=O)(=O)Nc1ccc(-c2coc3cc(C#CC4CCN(C(=O)C5CC5)CC4)ccc3c2=O)cc1 [N-(4-(7-((1-(cyclopropanecarbonyl)piperidin-4-yl)ethynyl)-4-oxo-4H-chromen-3-yl)phenyl)methanesulfonamide] | > 130 | > 130 | 0.0065 | – | – | – | – | –
CN1CCC(C(=O)N2CC(C#Cc3ccc4c(=O)c(-c5ccc(NS(C)(=O)=O)cc5)coc4c3)C2)CC1 [N-(4-(7-((1-(1-methylpiperidine-4-carbonyl)azetidin-3-yl)ethynyl)-4-oxo-4H-chromen-3-yl)phenyl)methanesulfonamide] | > 130 | > 130 | 0.035 | – | – | – | – | –
COCCC(=O)N1CC(C#Cc2ccc3c(=O)c(-c4ccc(NS(C)(=O)=O)cc4)coc3c2)C1 [N-(4-(7-((1-(3-methoxypropanoyl)azetidin-3-yl)ethynyl)-4-oxo-4H-chromen-3-yl)phenyl)methanesulfonamide] | > 130 | > 130 | 0.008 | – | – | – | – | –
CC(C)(C)OC(=O)N1CCC(C#Cc2ccc3c(=O)c(-c4ccc(NS(C)(=O)=O)cc4)coc3c2)CC1 [tert-butyl 4-((3-(4-(methylsulfonamido)phenyl)-4-oxo-4H-chromen-7-yl)ethynyl)piperidine-1-carboxylate] | > 130 | > 130 | 0.086 | – | – | – | – | –
CS(=O)(=O)Nc1ccc(-c2coc3cc(C#CC4CN(C(=O)C5CC5(F)F)C4)ccc3c2=O)cc1 (centres unmarked) [N-(4-(7-((1-(2,2-difluorocyclopropane-carbonyl)azetidin-3-yl)ethynyl)-4-oxo-4H-chromen-3-yl)phenyl)methanesulfonamide] | > 130 | > 130 | 0.005 | – | – | – | – | –
